{"source": "patent US20210113540A1", "about": "“TREATMENT AGENT AND PHARMACEUTICAL COMPOSITION FOR GLIOMA” (NATIONAL UNIVERSITY CORPORATION HOKKAIDO UNIVERSITY, priority 2018, published 2021)", "key": {"[1]": {"tested_on": "Glioma-initiating cell E6R", "test": "Cell growth test (MTT) on GICR strain E6R", "assay_type": "cell-based", "conditions": "Homo sapiens, 72 h", "experimental": "GICR strain: Cell growth test was performed using E6R (Stem Cells. 2016 August; 34(8):2016-25.).\n(§1) Cell culture solutions were obtained by mixing a medium prepared by adding various compounds, bFGF (Peprotech, 100-18B) and EGF (Peprotech, 100-15) to DMEM/Ham's F-12 medium (SIGMA, D8062) and a medium prepared by adding FCS (Hyclone, SH30910.03) to DMEM medium (Nacalai tesque, 08458-45) to a concentration of 10% for use.\n(§2) Each compound adjusted to a predetermined concentration was dispensed into a 96-well plate (Falcon, 353072) at 80 μL/well, and E6 cells and E6R cells were seeded on the 96-well plate at 1000 cells/80 μL/well. After 3 days, 10 μL of an MTT reagent (DOJINDO, 341-01823) was added, the cells were incubated at 37° C. for 3 hours, the culture solution was removed, and 100 μL of DMSO was added. The absorbance at 570 nm was measured using Bio-Rad iMark (Bio-Rad, 168-1130JA). The growth inhibition rate at each test compound concentration was calculated by the following formula using the absorbance as an index of the viable cell count.\n(§3) The growth inhibition rate at each compound concentration was determined, and the 50% growth inhibition concentration GI50 (μmol/L)] was calculated using XLfit. Growth inhibition rate (%)=(Amount of luminescence from wells supplemented with test compound)/(Amount of luminescence from wells supplemented with DMSO)×100\n(§4) GIC and GICR strain: Cell growth test was performed using E6, E6R, E16, and E16R (Stem Cells. 2016 August; 34(8): 2016-25.)."}, "[2]": {"tested_on": "Glioma-initiating cell E6", "test": "Cell proliferation test (MTT) on GIC strain E6", "assay_type": "cell-based", "conditions": "Homo sapiens, 72 h, MTT after 3 days", "experimental": "as §4, §1, §2, §3"}, "[3]": {"tested_on": "Glioma-initiating cell E16", "test": "Cell proliferation test (MTT) on GIC strain E16", "assay_type": "cell-based", "conditions": "Homo sapiens, 72 h, MTT after 3 days", "experimental": "as §4, §1, §2, §3"}, "[4]": {"tested_on": "Glioma-initiating cell E16R", "test": "Cell proliferation test (MTT) on GICR strain E16R", "assay_type": "cell-based", "conditions": "Homo sapiens, 72 h, MTT after 3 days", "experimental": "as §4, §1, §2, §3"}, "[5]": {"tested_on": "SOX2 in GICs (E16)", "test": "SOX2 immunostaining, SOX2/DAPI positive rate in GICs (E16)", "assay_type": "cell-based, human", "experimental": "The extranuclear elimination of compound 8-dependent SOX2 is dependent on the extranuclear transport factor, Exportin (also known as CRM1). The cells were cultured for one day in the presence of Compound 8 (10 μM) and a CRM1-specific inhibitor leptomycin B (LMB, 150 nM), and GICs were immunostained with the SOX2 antibody. As a result, the SOX2/DAPI positive rate in GICs (E6) was as follows: Control: 95±2%, supplemented with Compound 8: 7±3%, supplemented with Compound 8+LMB: 87±9%; the SOX2/DAPI positive rate in GICs (E16) was as follows: Control: 72±11%, supplemented with compound 8: 0.5±1%, supplemented with Compound 8+LMB: 81±10%. The addition of LMB suppressed Compound 8-dependent extranuclear elimination of SOX2.\n(§5) When UDP-GlcNAc was added after the chemical was added to GIC, reduced SOX2 expression in GICs and the cytotoxic activity of Compound 8 on GICs were neutralized (FIGS. 3 and 4). SOX2 K75A in which lysine 75 involved in the binding of CRM1 and SOX2 was substituted with alanine and SOX2 S248A in which the 0-GlcNAcylation target serine 248 was substituted with alanine were prepared, thereby establishing GICs that constitutively express these SOX2 mutants and wild-type SOX2 (SOX2 wt). After treatment with Compound 8, the localization of SOX2 was examined by immunostaining using an anti-FLAG antibody, and the viability of GICs expressing these mutants was examined by MTT assay (FIG. 5). In the presence of Compound 8, SOX2 K75A was present in the nucleus and partially neutralized the cytotoxic activity of Compound 8. SOX2 S248A was not retained in the nucleus by treatment with Compound 8, and no inhibitory effect on cytotoxic activity was observed. […] The SOX2/DAPI positive rate was as follows: GIC (E6): Control: 0%, SOX2 wt: 36±5%, SOX2 K75A: 63±5%, SOX2 S248A: 18±2%; GIC (E16): Control: 0%, SOX2 wt: 22±4%, SOX2 K75A: 58±6%, SOX2 S248A: 15±3%. Error bar: ±SD. Statistical processing is t-test. *P<0.05, **P<0.01, ***P<0.001. GIC was cultured for 2 days with Compound 8 (10 μmol/L) alone or together with UDP-GlcNAc (1 mmol/L), and immunostaining was performed for SOX2 and NESTIN. As a result, the addition of UDP-GlcNAc suppressed Compound 8-dependent extranuclear elimination of SOX2.\nOSMI-1, which is an O-GlcNAc transferase (OGT)-specific inhibitor, suppresses GIC growth and SOX2 expression. (A) GICs were cultured for 3 days in the presence of various concentrations of OSMI-1, and cell growth was examined using MTT assay (FIG. 6). (B) The results of immunostaining for SOX2 and NESTIN using GICs cultured for 2 days in the presence of 20 μmol/L OSMI-1 and calculating the SOX2 positive rate (SOX2/DAPI) are shown below."}, "[6]": {"tested_on": "GICs (E6, E16)", "test": "Quantitative determination of metabolites by LC-MS/MS in GICs", "assay_type": "cell-based, human", "parameters": "amounts of purine metabolites (ATP, GTP, dATP, dGTP): dose or concentration left out as unconfirmed", "conditions": "24 hours", "experimental": "Compound 8 was added to GICs (E6, E16) at […] and treated for 24 hours. Cells were washed with a 5% mannitol solution, 70% ice-cold methanol was added, and metabolites were extracted. […] In addition, the amount of orotic acid was decreased in E16 cells."}, "[7]": {"tested_on": "GICs", "test": "Neutralization of GIC-damaging activity by addition of UDP-GlcNAc", "assay_type": "cell-based, human", "conditions": "UDP-GlcNAc added after the chemical, FIG. 4", "experimental": "as §5, with “As a result, the addition of UDP-GlcNAc suppressed Compound 8-dependent extranuclear elimination of SOX2.” left out"}, "[8]": {"conditions": "after treatment with Compound 8, anti-FLAG immunostaining"}}, "note": "Read-outs that look alike come from different tables or passages of the source.", "data": [{"smiles": "O=C(O)c1cc(C2CC2)cnc1Nc1ccc2c(ccn2-c2ccccc2)c1", "note": "[Compound 8, 5-cyclopropyl-2-((1-phenyl-1H-indole-5-yl)amino)nicotinic acid]", "values": [{"measurement": "GI50", "setting": "[1]; MTT after 3 days, read-out: ER6 GI50", "value": 11.8, "unit": "nM"}, {"measurement": "GI50", "setting": "[1]; class of ER6 GI50, MTT after 3 days, read-out: Evaluation", "value": "< 1000", "unit": "nM"}, {"measurement": "GI50", "setting": "[2]; read-out: GI50 (nmol/L) of Glioma-initiating cell E6", "value": "< 7", "unit": "nmol/L"}, {"measurement": "GI50", "setting": "[2]; read-out: GI50 class of Glioma-initiating cell E6", "value": "< 1000", "unit": "nmol/L"}, {"measurement": "GI50", "setting": "[3]; read-out: GI50 (nmol/L) of Glioma-initiating cell E16", "value": 434, "unit": "nmol/L"}, {"measurement": "GI50", "setting": "[3]; read-out: GI50 class of Glioma-initiating cell E16", "value": "< 1000", "unit": "nmol/L"}, {"measurement": "GI50", "setting": "[4]; read-out: GI50 (nmol/L) of Glioma-initiating cell E16R", "value": 490, "unit": "nmol/L"}, {"measurement": "GI50", "setting": "[4]; read-out: GI50 class of Glioma-initiating cell E16R", "value": "< 1000", "unit": "nmol/L"}, {"measurement": "SOX2/DAPI positive rate in GICs (E16)", "setting": "[5]; Compound 8 10 μM, LMB 150 nM where added, cultured one day, control 72±11%", "value": "0.5±1", "unit": "%"}, {"measurement": "SOX2/DAPI positive rate, GIC (E16) expressing SOX2 K75A", "setting": "[5]; [8]", "value": "58±6", "unit": "%"}, {"measurement": "SOX2/DAPI positive rate, GIC (E16) expressing SOX2 S248A", "setting": "[5]; [8]", "value": "15±3", "unit": "%"}, {"measurement": "SOX2/DAPI positive rate, GIC (E16) expressing SOX2 wt", "setting": "[5]; [8]", "value": "22±4", "unit": "%"}, {"measurement": "amounts of pyrimidine metabolites downstream of orotic acid (UMP, UDP, UTP, CMP, CDP, CTP, dCTP, dTTP)", "setting": "[6]; 10 M", "value": "reduced"}, {"measurement": "amounts of purine metabolites (ATP, GTP, dATP, dGTP)", "setting": "[6]", "value": "remained unchanged"}, {"measurement": "cytotoxic activity of Compound 8 on GICs when UDP-GlcNAc was added", "setting": "[7]", "value": "neutralized"}]}]}
